Data: patent US9056804B2, “Urease inhibitor formulations” (Incitec Pivot Limited, priority 2011, dated 2015)

Assays:
[1] = test system: urease; assay: Soil-water suspension incubation, ammonium formed from urea (17 days); format: biochemical; details: 72% inhibition at 50 μg/200 ml versus NBPT at 400 μg/200 ml
Procedure: The ammonium produced was measured as per Example 9.

[2] = test system: fish, algae and invertebrates; details: cited from earlier work

SMILES	activity relative to NBPT [1]	LC50 [2]
NP(N)(=O)Nc1ccccc1[N+](=O)[O-] [Example 2-NPT, 2-nitrophenyl phosphoric triamide]	about eight times more active than NBPT	
O=S1(=O)CCCC1 [tetramethylene sulfone]		greater than 1000 mg/l
